US20230151057A1, “LACTIC ACID BACTERIA GROWTH PROMOTER” (Asahi Group Holdings, Ltd., priority 2020, published 2023)
Ends that are not written are not given here.

How the values were obtained:
Assay type in all cases: cell-based
[1] = system: Lactobacillus curvatus (NITE P-02033); assay: Growth-promoting effect on Lactobacillus curvatus in modified MRS medium (particle count); conditions: Example 4, peptide 0.25 mg/mL, 37° C., 18 hours; for Rate of increase: control = 100%
Description: Nitrogen sources in MRS medium were reduced to find a medium composition that achieves a total bacterial count of about 1.0×10^8 cell/mL to 1.0×10^9 cell/mL after culturing of each of the six bacterial strains Lactobacillus gasseri (FERNM BP-11331), Lactobacillus acidophilus (FERM BP-4981), Lactobacillus amylovorus (FERM BP-11255), Lactobacillus curvatus (NITE P-02033), Lactobacillus plantarum, and Lactobacillus brevis. This composition, named “modified MRS medium”, was used for the evaluation. Here, for the composition of the MRS medium, a composition described in a medium catalog provided by BD (Becton, Dickinson and Company) was used as a reference. The compositions of the MRS medium and the modified MRS medium are as follows. By chemical synthesis, 28 kinds of candidate peptides having the sequences shown below were provided. Each candidate peptide was added to the modified MRS medium at 0.25 mg/mL to provide a medium to be evaluated. The lactic acid bacterium Lactobacillus gasseri was inoculated at 1.0×10^7 cells/mL to the provided medium to be evaluated, and culture was carried out at a temperature of 37° C. for a culture period of 18 hours. The resulting culture was collected, and subjected to measurement of the particle concentration (particles/mL) as a characteristic value that can be used as an index of the bacterial cell growth, using a particle count analyzer (CDA-1000, Sysmex). The rate of increase (%) was calculated relative to a control value obtained using a medium to which no peptide was added, which was taken as 100%. For eight kinds of candidate peptides having the sequences shown below, the growth-promoting effect on a lactic acid bacterium was evaluated in the same manner as in Example 1 except that Lactobacillus curvatus was used instead of Lactobacillus gasseri.

Lactobacillus plantarum = assay: Growth-promoting effect on Lactobacillus plantarum in modified MRS medium (particle count); conditions: Example 5, peptide 0.25 mg/mL, 37° C., 18 hours; for Rate of increase: control = 100%
Description: Nitrogen sources in MRS medium were reduced to find a medium composition that achieves a total bacterial count of about 1.0×10^8 cell/mL to 1.0×10^9 cell/mL after culturing of each of the six bacterial strains Lactobacillus gasseri (FERNM BP-11331), Lactobacillus acidophilus (FERM BP-4981), Lactobacillus amylovorus (FERM BP-11255), Lactobacillus curvatus (NITE P-02033), Lactobacillus plantarum, and Lactobacillus brevis. This composition, named “modified MRS medium”, was used for the evaluation. Here, for the composition of the MRS medium, a composition described in a medium catalog provided by BD (Becton, Dickinson and Company) was used as a reference. The compositions of the MRS medium and the modified MRS medium are as follows. By chemical synthesis, 28 kinds of candidate peptides having the sequences shown below were provided. Each candidate peptide was added to the modified MRS medium at 0.25 mg/mL to provide a medium to be evaluated. The lactic acid bacterium Lactobacillus gasseri was inoculated at 1.0×10^7 cells/mL to the provided medium to be evaluated, and culture was carried out at a temperature of 37° C. for a culture period of 18 hours. The resulting culture was collected, and subjected to measurement of the particle concentration (particles/mL) as a characteristic value that can be used as an index of the bacterial cell growth, using a particle count analyzer (CDA-1000, Sysmex). The rate of increase (%) was calculated relative to a control value obtained using a medium to which no peptide was added, which was taken as 100%. For eight kinds of candidate peptides having the sequences shown below, the growth-promoting effect on a lactic acid bacterium was evaluated in the same manner as in Example 1 except that Lactobacillus plantarum was used instead of Lactobacillus gasseri.

[2] = system: Lactobacillus amylovorus (FERM BP-11255); assay: Growth-promoting effect on Lactobacillus amylovorus in modified MRS medium (particle count); conditions: Example 3, peptide 0.25 mg/mL, 37° C., 18 hours; for Rate of increase: control = 100%
Description: Nitrogen sources in MRS medium were reduced to find a medium composition that achieves a total bacterial count of about 1.0×10^8 cell/mL to 1.0×10^9 cell/mL after culturing of each of the six bacterial strains Lactobacillus gasseri (FERNM BP-11331), Lactobacillus acidophilus (FERM BP-4981), Lactobacillus amylovorus (FERM BP-11255), Lactobacillus curvatus (NITE P-02033), Lactobacillus plantarum, and Lactobacillus brevis. This composition, named “modified MRS medium”, was used for the evaluation. Here, for the composition of the MRS medium, a composition described in a medium catalog provided by BD (Becton, Dickinson and Company) was used as a reference. The compositions of the MRS medium and the modified MRS medium are as follows. By chemical synthesis, 28 kinds of candidate peptides having the sequences shown below were provided. Each candidate peptide was added to the modified MRS medium at 0.25 mg/mL to provide a medium to be evaluated. The lactic acid bacterium Lactobacillus gasseri was inoculated at 1.0×10^7 cells/mL to the provided medium to be evaluated, and culture was carried out at a temperature of 37° C. for a culture period of 18 hours. The resulting culture was collected, and subjected to measurement of the particle concentration (particles/mL) as a characteristic value that can be used as an index of the bacterial cell growth, using a particle count analyzer (CDA-1000, Sysmex). The rate of increase (%) was calculated relative to a control value obtained using a medium to which no peptide was added, which was taken as 100%. For eight kinds of candidate peptides having the sequences shown below, the growth-promoting effect on a lactic acid bacterium was evaluated in the same manner as in Example 1 except that Lactobacillus amylovorus was used instead of Lactobacillus gasseri.

Substance | Particle concentration [1] [mL⁻¹] | Rate of increase [1] [%] | Particle concentration (Lactobacillus plantarum) [mL⁻¹] | Rate of increase (Lactobacillus plantarum) [%] | Particle concentration [2] [mL⁻¹] | Rate of increase [2] [%]
AGPQTF | 1.58e+08 | 111 | 3.36e+09 | 108 | 1.93e+08 | 118
APKPDYPIA (listed as Saccharomyces cerevisiae) [Ala-Pro-Lys-Pro-Asp-Tyr-Pro-Ile-Ala] | 1.6e+08 | 112 | 3.45e+09 | 111 | 1.83e+08 | 112
Leu-Phe [LF] | 2.22e+08 | 124 | 3.32e+09 | 107 | 2.08e+08 | 109
Leu-Pro-Trp-Gly (LPWG; listed as Saccharomyces cerevisiae) | 1.97e+08 | 109 | 3.09e+09 | 100 | 2.13e+08 | 111
Pro-Ser-Val-Phe (PSVF; listed as Saccharomyces cerevisiae) | 1.68e+08 | 119 | 3.17e+09 | 102 | 1.92e+08 | 118
Pro-Val-Phe [PVF] | 1.71e+08 | 95 | 2.92e+09 | 94 | 2.07e+08 | 108
Pro-Val-Tyr [PVY] | 1.64e+08 | 116 | 3.23e+09 | 104 | 1.98e+08 | 121
Val-Pro-Ala-Phe (VPAF; listed as Saccharomyces cerevisiae) | 2.15e+08 | 117 | 3.27e+09 | 105 | 2.07e+08 | 108
